Holding throughout (assay): NCI tumour cell line growth inhibition, 48 h
Test [1] has as its system UACC-62 melanoma.
Test [2] deals with KM12 colon.
Test [3] deals with PC-3 prostate.
The test system of test [4] is NCI-H522 lung.
Test [5] deals with OVCAR-3 ovarian.
Test [6] concerns UACC-257 melanoma.
Test [7] concerns SK-MEL-2 melanoma.
The subject of test [8] is MCF7 breast.
Test [9] deals with DU-145 prostate.
In test [10] the test system is A498 renal.

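Results reflect a 48-hour exposure of cells in 96-well plates to compound at five concentrations. TGI: total growth inhibition.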 A value given as a limit tells only on which side of the number the result lay.

`Cc1ccc(S(=O)(=O)NNCNC(=O)c2ccccc2)cc1`: the TGI in [1], in test [2], in [3], in test [4], in test [5] and in [6] was greater than 100 µM each time. Moreover, the TGI in test [7], in test [8] and in [9] was greater than 100 µM each time.
With `COc1ccc(-c2cc3[nH]nc(N)c3c(=O)o2)cc1`, the TGI in test [2], in test [10], in [6] and in test [7] was greater than 100 µM in each case.
Turning to `COc1ccc(/C=C2\CCC(C)C3=C2N=c2s/c(=C/c4cccc(Br)c4)c(=O)n2C3c2ccc(OC)c(OC)c2)cc1OC` (centres undefined), the TGI in test [1], in test [2], in [3], in test [10], in [6] and in test [7] was greater than 100 µM in each case. For the same compound, the TGI in test [8] and in test [9] was greater than 100 µM in each case.
As to `CC1=C(C)Cc2c(O)ccc(O)c2C1`, the TGI in test [1] was 30.1 µM; in [2], greater than 100 µM; in [3] it was 32.1 µM; in test [10], greater than 100 µM; in test [5] it was 43.2 µM; in test [6], 32.2 µM. Further, the TGI amounted to 51.3 µM in test [8] and 39.7 µM in [9].
In the case of `Cc1ccccc1S(=O)(=O)Nn1cnc2ccc(S(=O)(=O)Nc3ccc(Cl)cc3)cc2c1=O`, the TGI in [1], in test [2], in test [3], in test [4], in [5] and in test [6] was greater than 100 µM throughout. The TGI in test [7], in [8] and in [9] was greater than 100 µM in each case.
On to `Cc1ccnc(NC(NC(=O)c2ccccc2)(C(F)(F)F)C(F)(F)F)c1`, for which the TGI in test [1], in test [2], in test [3], in test [4], in [5] and in [6] was greater than 100 µM throughout. In addition, the TGI in test [7], in [8] and in [9] was greater than 100 µM throughout.
On to `Cc1cc(=O)oc2c(CNC(Cc3ccccc3)C(=O)O)c(O)ccc12` (centres undefined), for which the TGI in test [1], in [2], in test [3], in test [4], in [5] and in [6] was greater than 100 µM each time. For the same compound, the TGI in [7], in test [8] and in test [9] was greater than 100 µM each time.
In the case of `CCOC(=O)CCC(NC(=O)c1ccc(OCc2ccc3nc(-c4ccccc4)c(Cl)nc3c2)cc1)C(=O)OCC` (centres undefined), the TGI in test [1] is greater than 31.6 µM; in test [2], greater than 31.6 µM; in [4] it was greater than 31.6 µM; in test [10], 77.4 µM; in test [5], greater than 31.6 µM; in [6], greater than 31.6 µM. For the same compound, the TGI in [7] was greater than 100 µM; in test [8], greater than 31.6 µM; in test [9], greater than 31.6 µM.
For `O=C1Oc2cc(O)cc(/C=C/c3ccc(O)cc3)c2[C@@]12c1c(O)cc(O)cc1OC2c1cccc(O)c1` (some centres undefined), the TGI was 68 µM in test [1]; greater than 100 µM in test [2]; greater than 100 µM in [3]; greater than 100 µM in test [5]; 67.5 µM in [6]; 54.8 µM in test [7]. The TGI in test [8] and in [9] was greater than 100 µM throughout.
For `CN(C)c1nc(Cl)c2c(-c3ccccc3)c(-c3ccccc3)oc2n1`, the TGI in [1] is greater than 100 µM; in test [2] it was greater than 100 µM; in test [4], 78.7 µM; in [10], greater than 100 µM; in [6], greater than 100 µM; in test [8], greater than 100 µM. For the same compound, the TGI in test [9] is greater than 100 µM.
For the compound `O=C(Nc1nc(C23CC4CC(CC(C4)C2)C3)cs1)c1cc2ccccc2oc1=O`, the TGI in test [2], in test [3], in test [4], in [10], in [5] and in test [6] was greater than 100 µM in each case. The TGI in [8] and in test [9] was greater than 100 µM each time.
For `COc1ccccc1C(=O)c1c(NCc2ccccc2)c(=O)c1=O`, the TGI was greater than 100 µM in [1]; greater than 100 µM in test [2]; greater than 100 µM in test [3]; 31.8 µM in [4]; greater than 100 µM in test [10]; greater than 100 µM in [5]. For the same compound, the TGI in test [6], in [7] and in test [9] was greater than 100 µM in each case.
`COc1cc(Cc2nccc3cc(OC)c(OC)cc23)c(N=NN(C)C)cc1OC`: the TGI in test [1] is 28.9 µM; in [2] it was 40.2 µM; in [3], 56.8 µM; in test [5], 73.9 µM; in [6] it was 44.9 µM; in [7] it was 70.2 µM. The figures for the TGI in test [8] and in [9] were 37.3 µM and 35.7 µM, respectively.
For the compound `CCOC(=O)c1ccc(NCC#CCN2CCCCC2)cc1`, the TGI in test [1], in test [2], in test [3], in [10], in test [5] and in test [7] was greater than 100 µM in each case. Further, the TGI in [8] and in test [9] was greater than 100 µM throughout.
Regarding `C=C1C2C[C@@H]3O[C@H]4C[C@H]5O[C@@]6(C[C@@H]7O[C@]8(C[C@H](C)[C@@H]9O[C@@H]%10CC(CO)O[C@@H]%10C[C@@H]9O8)C[C@H](C)[C@@H]7O6)C[C@H]5O[C@H]4[C@H](C)[C@H]3OC(=O)C[C@H]3CC[C@@H]4OC5[C@H]6O[C@]7(CC[C@H]8CC(=C)[C@H](CC[C@@H](C[C@H]1C)O2)O8)CC6O[C@@H]5[C@@H](O7)[C@H]4O3` (some centres undefined), the TGI in test [1] was greater than 1 µM; in [3], greater than 1 µM; in test [4], less than 0.0001 µM; in [10], greater than 1 µM; in [5] it was greater than 1 µM; in test [6], greater than 1 µM. Moreover, the TGI in test [7] is greater than 1 µM.
For `CC1(C)OCC=CCO1`, the TGI in test [1], in test [2], in [3], in test [4], in test [5] and in test [6] was greater than 100 µM each time. Further, the TGI in test [7], in [8] and in test [9] was greater than 100 µM each time.

Source of the values: PubChem BioAssay (NCI).
